Structures are written as SMILES.

The melting point is the temperature, or range, at which the solid turns liquid. As for `Cc1ccccc1/C=C/c1c(C(C)C)nc(C(C)C)c(CO)c1-c1ccc(F)cc1`, the melting point was 108 to 111 °C.
Turning to `O=C(O)COc1ccc(SCCc2ccc(-c3ccc(C(F)(F)F)cc3)cc2)c2c1CCC2`, the melting point was in the range of 170 to 172 °C.
With `COc1ccc(NC(=O)CN2CC(C)N(C(c3ccc(F)cc3)c3ccc(F)cc3)CC2C)cc1` (stereo not drawn) the figure was 131 °C; with `O=C(c1ccccc1)N1Cc2c(-c3noc(C4CC4)n3)ncn2-c2ccccc21`, 198 to 199 °C; with `CC1(C)CC(NC(=O)C(=O)NCCO)CC(C)(C)N1OC1CCCCC1`, 190 to 192 °C.
The figure for `COc1cc2c(cc1F)C1(CO2)C(=O)N(CC2CCCCO2)c2ccccc21` (stereo not drawn) is 131 to 133 °C; for `COc1cc(OC)c(-c2nc(C)no2)cc1C=O` it is 182 to 183 °C; for `COc1ccc2c(c1)C(=O)C(O)=C([N+](=O)[O-])C2=O` it is 152 to 155 °C.
The figure for `COc1ccn2nc(-c3ccccc3)c(-c3ccc(=O)n(C(C)C)n3)c2c1Br` is 205 to 206 °C.
The molecule `NC(=O)N[C@@H]1CN2C(=O)N(c3cc(Cl)nc(Cl)c3)C(=O)[C@@]2(Cc2ccc(OC(F)(F)F)cc2)C1` displayed a melting point of 142 °C.
`CCCC/C=C\c1c([C@H](O)[C@H](CCCC)NC(=O)[C@H](CC(C)C)NC(=O)OCc2ccccc2)c1=O` had a melting point of 87 to 94 °C.
The figure for `Cc1ccc(S(=O)(=O)c2c(N)c3nccn3c3nccnc23)cc1` is 294 to 295 °C; for `Cc1ccc2c(C(=O)O)cn(C(C)C)c2c1` it is 185 to 186 °C; for `Cc1sc2c(c1C)C(=O)NS2(=O)=O` it is 187 °C.
The figure for `CCOC(=O)c1c(-c2ccc(F)cc2)cc(-c2ccccc2Cc2ccccc2)nc1C(C)C` is 94 to 97 °C; for `CC(C)(C)NC(=O)C(=O)C(C)(C)C` it is 65 °C; for `O=C1NC(O)c2cccn2-c2ccsc21` (stereo not drawn) it is 172 °C.
The figure for `CC(O)c1ccc(-c2ccc(C(=O)OCc3ccc(Cl)cc3)cc2)cc1` (single isomer, unassigned; (+)) is 108 to 110 °C; for `NC(=S)Nc1ccc(C(F)(F)F)cn1` it is 203 to 205 °C; for `CC(=O)c1ccc2sc3ccccc3c2c1` it is 97 to 100 °C.
Molecule `CCN(C=C(C#N)C#N)c1cc(C(F)(F)F)cc(C(F)(F)F)c1` came in with a melting point of 118 to 120 °C.
As for `O=C(Nc1ccc(C(=O)SCC2C(=O)OCC2c2ccccc2)cc1)OCc1ccccc1` (stereo not drawn), the melting point lay within 160 to 162 °C.
`CC1=C(c2cccc(C(F)(F)F)c2)n2ncc3c(=O)[nH]c(=S)n(c32)C1` had a melting point of 269 to 271 °C.
The figure for `CC(=O)C1Oc2c(C(C)(C)C)cc(Cl)cc2C1(C)C` (stereo not drawn) is 76 to 77 °C; for `O=S(=O)(c1cc(Cl)ccc1O)N1CCCC1` it is 101 to 102 °C.
The figure for `O=C(Nc1cc(-c2ccc(Cl)cc2)no1)c1c(Cl)cccc1Cl` is 208 to 209 °C; for `[N-]=[N+]=NCCc1cccc2[nH]cc(S(=O)(=O)c3ccccc3)c12` it is 143 °C.
With `CCN(C(=O)c1nn(-c2ccc(Cl)cc2Cl)c(-c2ccc(Cl)cc2)c1C)N1CC=CCC1` the figure was 109 °C; with `c1ccc(COc2ccc(Cn3cnc4c(-c5ccco5)ncnc43)cc2)cc1`, 145 to 146 °C; with `Cn1c(CCOc2ccc(CC3SC(=O)NC3=O)cc2)nc2cccnc21` (stereo not drawn), 96 to 100 °C.
With `CC(C)n1nc(-c2nc(C#N)c(C#N)nc2-c2ccccc2)ccc1=O`, the melting point was in the range of 201 to 202 °C.
With `CC(C)(C)c1ccc(Cn2ccc3cc(Br)ccc32)cc1` the figure was 108 to 109 °C; with `COc1cc(Nc2nc(-c3ccc(Cl)cc3)cc(C(F)(F)F)n2)ccc1-n1cnc(C)c1`, 202 to 204 °C; with `COc1ccc(S(=O)(=O)C(Cc2ccccc2)C(=O)NO)cc1` (stereo not drawn), 180 °C.
The figure for `COCCOc1ccc(COC(=O)NS(=O)(=O)NCC(C)C)c(Oc2ncc(C(F)(F)F)cc2Cl)c1` is 160 to 161 °C.
In the case of `CCCc1c(OCCCOc2c(C(C)=O)ccc(OCC(=O)O)c2CCC)ccc(C(C)=O)c1O`, the melting point fell in the range of 124 to 125 °C.
As to `O=S(=O)(c1cccc2cccnc12)N1CCN(CCc2ccc(F)cc2)CC1`, the melting point amounted to 141 °C.
The figure for `Cc1nc(NC(=O)c2cnn3c(C(F)(F)F)cc(-c4ccc(C(F)(F)F)cc4)nc23)sc1S(=O)(=O)N(C)CCO` is 266 °C.
`CC(C)CC(C)c1ccccc1NC(=O)c1cn(C)cc1C(F)(F)F` (stereo not drawn) came in with a melting point of 83 to 85 °C.
With `COC(=O)C(=O)c1ccc(OCCOc2ccc3ccccc3c2)cc1Cl` the figure was 123 to 125 °C.
With `O=C1N[C@@H](C(=O)N2C[C@H](O)C[C@H]2C(=O)O)CCCCCC[C@@H]1CS` the figure was 128 to 130 °C; with `O=C(Oc1ccccc1)c1cc2cccc(O)c2[nH]1`, 156 to 157 °C; with `O=C(Nc1cc(S(=O)(=O)N(CCO)CCO)sc1Cl)c1cnn2c(C(F)(F)F)cc(-c3ccc(C(F)(F)F)cc3)nc12`, 217 °C.
With `CC1(C)CCC(C)(C)c2cc(-c3cc(-c4ccc(C(=O)O)cc4)ccc3OCC(O)CO)ccc21` (stereo not drawn) the figure was 258 °C; with `CC1=CC(c2ccccc2[N+](=O)[O-])C=C(CN2C(=O)c3ccccc3C2=O)N1` (stereo not drawn), 137 to 138 °C; with `CNNc1nncc(-c2ccccc2)n1`, 112 to 113 °C.
Consider `COc1c2c(c(OC)c(OC)c1OC)CC(CCCCOc1ccc(C(=O)O)cc1)C2`, for which the melting point fell in the range of 136 to 138 °C.
With `COCCc1nc2c(N)nc3ccccc3c2n1CCCCNC(=O)c1cc2ccccc2cn1` the figure was 199 to 200 °C; with `CC12CCC(O)CC1=CCC1C2CCC2(C)C1CCC2n1ccnc1` (stereo not drawn), 255 to 258 °C; with `COC(CCl)NC(=O)c1ccccc1` (stereo not drawn), 76.9 to 77.7 °C.
With `CCc1n[nH]c2cc(-c3nn(C(C)c4oc5ccccc5c(=O)c4-c4cccc(F)c4)c4ncnc(N)c34)ccc12` (stereo not drawn) the figure was 270 to 273 °C; with `COC1CCCCC1n1nnc2c([N+](=O)[O-])cccc21` (stereo not drawn), 134 to 136 °C; with `O=[N+]([O-])c1cc(Cl)c2c(c1)C(F)(F)C(F)(F)S2`, 61.5 to 62 °C.
With `O=C(O)CCCOc1ccccc1OCc1ccccc1` the figure was 75 to 76 °C; with `COc1ccc2c(C=O)c(OCc3ccccc3)ccc2c1`, 115 to 117 °C; with `CC(=O)OCC(=O)C1C(C)CC2C3CC(Cl)C4=CC(=O)C=CC4(C)C3C(O)CC21C` (stereo not drawn), 208 °C.
As to `Cc1cc(OCCc2nc(-c3ccccc3)oc2C)ccc1OCC(=O)O`, the melting point came to 133 °C.
`CCSCc1cc(O)nc(N(C)C)n1` yielded a melting point of 119 to 121 °C.
Molecule `COC1C(OC(=O)c2ccccc2)C(COC(=O)c2ccccc2)OC1n1ccc(=O)[nH]c1=O` (stereo not drawn) showed a melting point of 132 to 134 °C.
`CCOC(=O)c1ccc(/C=C/c2c(C)cc3c(c2OC)C(C)(C)CCC3(C)C)cc1` showed a melting point of 123 °C.
`CN(C)CCCCOc1ccc2c(=O)cc(-c3ccccc3)oc2c1` had a melting point of 95 to 96 °C.
The figure for `CCCC(C(N)=O)C(=O)O` (stereo not drawn) is 137 °C; for `Oc1ccc(-c2c(Cl)c3cc(O)ccc3n2Cc2ccc(OCCN3CCCC3)cc2)cc1` it is 233 to 235 °C.
With `Nc1ccc(O)c(C(=O)CCC(=O)O)c1` the figure was 158 to 160 °C; with `CNC(=O)C(C#N)C(=O)C1CCC1` (stereo not drawn), 81 to 83 °C.
The figure for `O=C(O)c1cc(NCCc2ccc([N+](=O)[O-])cc2)ccc1O` is 234 to 236 °C.
Take `COc1cccc(F)c1-c1ccc(NC(=O)OC(C)(C)C)c(N)c1`: the melting point was in the range of 165 to 167 °C.
Turning to `c1ccc(-c2nnc3ccc(N4CCOCC4)nn23)cc1`, the melting point lay in the range of 266 to 268 °C.
The figure for `Cn1ccnc1S(=O)(=O)CC(=O)C12CC3CC(CC(C3)C1)C2` is 124 to 125 °C; for `CCCCCCCCc1ccc(C(=O)CCCCC(=O)O)cc1` it is 96 to 97 °C.
`CSC(=N[N+](=O)[O-])N(C)SC(Cl)(Cl)Cl` displayed a melting point of 75 to 78 °C.
The figure for `COc1cc2c(cc1OC)N(C(=O)c1ccc(-c3ccccc3C(F)(F)F)c(C)c1)Cc1cccn1C2` is 187 to 188 °C; for `COc1c(C(O)CNC(C)(C)Cc2ccccc2)ccc(O)c1O` (stereo not drawn) it is 149 to 150 °C.
With `CCc1ccc(C(O)COc2ccc(C=O)cc2)nc1` (stereo not drawn) the figure was 80 °C; with `COC(=O)c1cnc2cccc(O)c2c1`, 200 °C.
Turning to `O=C1c2ccccc2C2(Cc3ccccc3)NCCN12` (stereo not drawn), the melting point was 115 to 117 °C.
Take `CCC=Cc1nc2ccccc2n1Cc1ccc(C#N)cc1`: the melting point is 125 °C.
With `CCOC(=O)Cc1nn(Cc2nc3ccccc3n2C)c(=O)c2ccccc12` the figure was 118 °C; with `COc1cccc2c(=O)c3c(O)cc(OCC(S)CCl)cc3oc12` (stereo not drawn), 125 °C; with `CC(C)n1c(=O)[nH]c2c(C(N)=O)nc(-c3cccc(O)c3)nc21`, 338 to 342 °C.
For the molecule `CN1Cc2c(C(=O)OC(C)(C)C)ncn2-c2ccccc2C1=S`, the melting point lay in the range of 207 to 208 °C.
With `COc1ccc(C(=O)CC(SC(C)=O)C(=O)O)cc1OC` (stereo not drawn) the figure was 110 to 112 °C; with `O=c1oc2c(c(O)c1Sc1nc3ccccc3o1)c(=O)n(Cc1ccccc1)c1ccccc21`, 196 to 198 °C; with `NC(=O)c1ccc(-c2nn(Cc3ccccc3)c3ccccc23)o1`, 259 °C.
`CN(C)c1ccc(-c2c(O)c3ccc(Cl)cc3[nH]c2=O)cc1` had a melting point of more than 300 °C.
The figure for `Cc1cc(C)nc(-n2ccnc2SCc2ccccc2NC=O)c1` is 124 to 126 °C; for `O=C(O)CCCCOc1ccc2nc3[nH]c(=O)[nH]c3cc2c1` it is 317 to 318 °C; for `CC(C)[C@@H]1CC[C@@H](C)C[C@H]1OC(=O)NCCC(C)n1cnc2c(N)nc3ccccc3c21` (stereo partly drawn) it is 84 to 86 °C.

Values taken from a melting point compilation (Tetko et al.; mined from patent text by program, amines drawn as free bases though some values may be those of a salt).
